Experimental data taken from BindingDB's records for doi:10.1016/j.bmc.2018.06.029 (East China University of Science & Technology, 2018).

Molecular target: Tyrosine-protein kinase SYK (Homo sapiens) (UniProt P43405)
Experiment: Inhibition of SYK (unknown origin) using FAM-labeled peptide as substrate preincubated for 10 mins followed by substrate addition measured after 25 mins

Structure (SMILES) | IC50 [µM]
COc1cc(Nc2nc(N3CCC(NC(=O)c4ccc(C(=O)O)cn4)C3)nc3c2COC3)cc(OC)c1OC (stereo unspecified) | 14.2
COCCCNc1nc(N2CCC(NC(=O)c3ccc(C(=O)O)cn3)C2)nc2c1COC2 (stereo unspecified) | > 50
CCOCCCNc1nc(N2CCC(NC(=O)c3ccc(C(=O)O)cn3)C2)nc2c1COC2 (stereo unspecified) | > 50
O=C(O)c1ccc(C(=O)NC2CCN(c3nc4c(c(NC5CCCCC5)n3)COC4)C2)nc1 (stereo unspecified) | 13.5
COC(=O)c1ccc(C(=O)NC2CCN(c3nc4c(c(Nc5ccc(OC)c(OC)c5)n3)CCC4)C2)cc1 (stereo unspecified) | > 50
CCCCCNc1nc(N2CCC(NC(=O)c3ccc(C(=O)O)cn3)C2)nc2c1COC2 (stereo unspecified) | > 50
O=C(O)c1ccc(C(=O)NC2CCN(c3nc4c(c(Nc5ccc6c(c5)OCCO6)n3)COC4)C2)nc1 (stereo unspecified) | 20.3
CCCCCCNc1nc(N2CCC(NC(=O)c3ccc(C(=O)O)cn3)C2)nc2c1COC2 (stereo unspecified) | 9.7
COc1ccc(Nc2nc(N3CCC(NC(=O)c4ccc(C(=O)O)cc4)C3)nc3c2CCC3)cc1OC (stereo unspecified) | 25.3
CCCCCCCNc1nc(N2CCC(NC(=O)c3ccc(C(=O)O)cn3)C2)nc2c1COC2 (stereo unspecified) | 11.4

Next, values leading:

IC50 [µM] | Structure (SMILES)
19.2 | CCc1ccc(Nc2nc(N3CCC(NC(=O)c4ccc(C(=O)O)cn4)C3)nc3c2COC3)cc1 (stereo unspecified)
32.1 | COc1ccc(Nc2nc(N3CCC(NC(=O)c4ccc(C(=O)O)cn4)C3)nc3c2COC3)cc1 (stereo unspecified)
23.7 | COc1ccc(Nc2nc(N3CCC(NC(=O)c4ccc(C(=O)O)cn4)C3)nc3c2COC3)cc1OC (stereo unspecified)
20.9 | Cc1ccc(Nc2nc(N3CCC(NC(=O)c4ccc(C(=O)O)cn4)C3)nc3c2COC3)cc1 (stereo unspecified)
15.6 | Cc1ccc(Nc2nc(N3CCC(NC(=O)c4ccc(C(=O)O)cn4)C3)nc3c2COC3)cc1C (stereo unspecified)
20.9 | COc1cc(Nc2nc(N3CCC(NC(=O)c4ccc(C(=O)O)cn4)C3)nc3c2COC3)cc(OC)c1 (stereo unspecified)
